Measurements as given in patent US8263596B2, “Kinase inhibitors and method of treating cancer” (University Health Network, priority 2010, dated 2012).
Counter-ions that a name gives are not always drawn. Like-named read-outs stand apart in the source and are kept apart here.

Experiments:
Aurora B = Aurora B (Homo sapiens, UniProt Q96GD4); test: Aurora B inhibition assay (Z-Lyte); assay type: biochemical; settings: read-out: IC50 Ranges Aurora B
human PLK4 = target: T1, human PLK4 (Homo sapiens, UniProt O00444); test: PLK4 inhibition assay (indirect ELISA); assay type: biochemical
T1 construct: amino terminal GST fusion of residues 1-391 of human PLK4; made in house; host or cells: E. coli
T1 sequence (O00444 1-391): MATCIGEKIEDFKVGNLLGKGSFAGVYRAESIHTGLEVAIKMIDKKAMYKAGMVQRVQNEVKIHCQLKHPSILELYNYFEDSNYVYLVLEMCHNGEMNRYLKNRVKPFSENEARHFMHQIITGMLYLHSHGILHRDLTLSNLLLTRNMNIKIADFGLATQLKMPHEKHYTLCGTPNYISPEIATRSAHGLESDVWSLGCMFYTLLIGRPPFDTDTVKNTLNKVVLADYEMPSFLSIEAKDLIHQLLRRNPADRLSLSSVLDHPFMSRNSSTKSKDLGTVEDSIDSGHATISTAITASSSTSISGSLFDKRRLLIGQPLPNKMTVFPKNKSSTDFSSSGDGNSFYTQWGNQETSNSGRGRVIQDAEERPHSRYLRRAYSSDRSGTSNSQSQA

A549 lung cancer cells = assay type: cell-based; settings: Homo sapiens, A549, 120 h, read-out: Cell Line GI50 Range A-549
SW620 colon cancer cells = assay type: cell-based; settings: Homo sapiens, SW-620, 120 h, read-out: Cell Line GI50 Range SW-620

Sequence of Aurora B (Q96GD4 whole entry): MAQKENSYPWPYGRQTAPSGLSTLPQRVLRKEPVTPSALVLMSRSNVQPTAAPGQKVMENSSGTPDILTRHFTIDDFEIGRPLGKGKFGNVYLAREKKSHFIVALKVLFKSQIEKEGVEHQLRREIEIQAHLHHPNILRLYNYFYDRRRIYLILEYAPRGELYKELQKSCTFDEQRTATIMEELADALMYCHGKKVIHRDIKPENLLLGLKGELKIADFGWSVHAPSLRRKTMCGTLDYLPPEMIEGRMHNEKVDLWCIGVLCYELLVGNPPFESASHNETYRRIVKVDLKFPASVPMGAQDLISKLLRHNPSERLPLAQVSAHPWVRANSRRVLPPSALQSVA

IC50 (Aurora B) | IC50 (human PLK4; read-out: IC50 Ranges PLK4) | Structure (SMILES) | GI50 (A549 lung cancer cells) | GI50 (SW620 colon cancer cells) | IC50 (human PLK4)
< 100 nM | < 100 nM | CN1CCN(c2ccc(-c3n[nH]c4cc([C@@H]5C[C@@]56C(=O)Nc5ccc(OC(F)F)cc56)ccc34)cn2)CC1 (relative stereo) [Example A209, (1R*,2S*)-5′-(difluoromethoxy)-2-(3-(6-(4-methylpiperazine-1-yl)pyridine-3-yl)-1H-indazol-6-yl)spiro[cyclopropane-1,3′-indolin]-2′-one 2,2,2-trifluoro acetate] | – | – | –
< 100 nM | < 100 nM | COc1ccc2c(c1)[C@]1(C[C@H]1c1ccc3c(-c4ccc(CN5CCOCC5)cc4)n[nH]c3c1)C(=O)N2 (relative stereo) [Example A139, (1R*,2S*)-5′-methoxy-2-(3-(4-(morpholinomethyl)phenyl)-1H-indazol-6-yl)spiro[cyclopropane-1,3′-indolin]-2′-one 2,2,2-trifluoroacetate] | – | – | –
< 100 nM | < 100 nM | CN1CCN(c2ccc(-c3n[nH]c4cc([C@@H]5C[C@@]56C(=O)Nc5ccc(Br)cc56)ccc34)cn2)CC1 (relative stereo) [Example A19, (1R*,2S*)-5′-bromo-2-(3-(6-(4-methylpiperazin-1-yl)pyridin-3-yl)-1H-indazol-6-yl)spiro[cyclopropane-1,3′-indolin]-2′-one] | – | – | –
< 100 nM | < 100 nM | NC(=O)CN1C(=O)[C@@]2(C[C@H]2c2ccc3c(/C=C/c4ccc(CN5CCCCC5)cc4)n[nH]c3c2)c2ccccc21 (relative stereo) [Example A165, 2-((1R*,2S*)-(E)-2′-oxo-2-(3-(4-(piperidin-1-ylmethyl)styryl)-1H-indazol-6-yl)spiro[cyclopropane-1,3′-indoline]-1′-yl)acetamide 2,2,2-trifluoroacetate] | – | – | –
< 100 nM | < 100 nM | COc1ccc2c(c1)[C@]1(C[C@H]1c1ccc3c(C#Cc4ccc(CN5CCOCC5)cc4)n[nH]c3c1)C(=O)N2 (relative stereo) [Example A138, (1R*,2S*)-5′-methoxy-2-(3-((4-(morpholinomethyl)phenyl)ethynyl)-1H-indazol-6-yl)spiro[cyclopropane-1,3′-indolin]-2′-one 2,2,2-trifluoroacetate] | – | – | –
100 to 1000 nM | 100 to 1000 nM | O=C1Nc2ccc(F)cc2[C@]12C[C@H]2c1ccc2c(I)n[nH]c2c1 (relative stereo) [Example A40, (1R*,2S*)-5′-fluoro-2-(3-iodo-1H-indazol-6-yl)spiro[cyclopropane-1,3′-indolin]-2′-one] | – | – | –
< 100 nM | < 100 nM | COc1ccc2c(c1)[C@]1(C[C@H]1c1ccc3c(C#Cc4ccc(C=O)cc4)n[nH]c3c1)C(=O)N2 (relative stereo) [Example A137, 4-((6-((1R*,2S*)-5′-methoxy-2′-oxospiro[cyclopropane-1,3′-indoline]-2-yl)-1H-indazol-3-yl)ethynyl)benzaldehyde] | – | – | –
100 to 1000 nM | < 100 nM | COc1ccc2c(c1)C1(CC1c1ccc3c(I)n[nH]c3c1)C(=O)N2 (stereo not drawn) [Example A6, (1R*,2S*)- and (1R*,2R*)-2-(3-iodo-1H-indazol-6-yl)-5-methoxyspiro-[cyclopropane-1,3′-indolin]-2′-one] | – | – | –
< 100 nM | < 100 nM | COc1ccc2c(c1)[C@]1(CC1c1ccc3c(/C=C/c4cc(F)c(CN(C)C)c(F)c4)n[nH]c3c1)C(=O)N2 (stereo in doubt) [Example A215, (1R*,2S*)-(E)-2-(3-(4-((dimethylamino)methyl)-3,5-difluorostyryl)-1H-indazol-6-yl)-5′-methoxyspiro[cyclopropane-1,3′-indolin]-2′-one 2,2,2-trifluoro acetate] | – | – | –
100 to 1000 nM | < 100 nM | CC(C)CCN1C(=O)[C@@]2(C[C@H]2c2ccc3c(/C=C/c4ccc(CN(C)C)cc4)n[nH]c3c2)c2ccccc21 (relative stereo) [Example A176, (1R*,2S*)-(E)-2-(3-(4-((dimethylamino)methyl)styryl)-1H-indazol-6-yl)-1′-isopentylspiro[cyclopropane-1,3′-indolin]-2′-one] | – | – | –
< 100 nM | < 100 nM | COc1ccc2c(c1)[C@]1(C[C@H]1c1ccc3c(-c4ccc(N5CCN(C)CC5)cc4)n[nH]c3c1)C(=O)N2C (relative stereo) [Example A100, (1R*,2S*)-5′-methoxy-1′-methyl-2-(3-(4-(4-methylpiperazin-1-yl)phenyl)-1H-indazol-6-yl)spiro[cyclopropane-1,3′-indolin]-2′-one 2,2,2-trifluoroacetate] | – | – | –
< 100 nM | – | COc1ccc2c(c1)[C@]1(C[C@H]1c1ccc3c(-c4ccc(N5CCN(C)CC5)cc4)n[nH]c3c1)C(=O)N2 (relative stereo) [Example A38, (1R*,2S*)-5′-Methoxy-2-(3-(4-(4-methylpiperazin-1-yl)phenyl)-1H-indazol-6-yl)spiro[cyclopropane-1,3′-indolin]-2′-one] | – | 100 to 1000 nM | –

The remaining lines, values behind:

Structure (SMILES) | IC50 (Aurora B) | IC50 (human PLK4; read-out: IC50 Ranges PLK4) | GI50 (A549 lung cancer cells) | GI50 (SW620 colon cancer cells) | IC50 (human PLK4)
COc1ccc2c(c1)[C@]1(C[C@H]1c1ccc3c(/C=C/c4ccc(N5CCN(C(C)C)CC5)cc4)n[nH]c3c1)C(=O)N2 (relative stereo) [Example A189, (1R*,2S*)-(E)-2-(3-(4-(4-isopropylpiperazin-1-yl)styryl)-1H-indazol-6-yl)-5′-methoxyspiro[cyclopropane-1,3′-indolin]-2′-one 2,2,2-trifluoroacetate] | < 100 nM | < 100 nM | – | – | –
COc1ccc2c(c1)[C@]1(CC1c1ccc3c(-c4ccc(N5CCN(C)CC5)nc4)n[nH]c3c1)C(=O)N2 (mixture of isomers) [Example A14, (1R*,2S*)-5′-Methoxy-2-(3-(6-(4-methylpiperazin-1-yl)pyridin-3-yl)-1H-indazol-6-yl)spiro[cyclopropane-1,3′-indolin]-2′-one dihydrochloride] | – | – | < 100 nM | < 100 nM | –
O=C1Nc2ccc(F)cc2[C@]12C[C@H]2c1ccc2c(/C=C/c3ccc(N4CCOCC4)nc3)n[nH]c2c1 (relative stereo) [Example A207, (1R*,2S*)-5′-fluoro-2-(3-((E)-2-(6-morpholinopyridin-3-yl)vinyl)-1H-indazol-6-yl)spiro[cyclopropane-1,3′-indolin]-2′-one 2,2,2-trifluoroacetate] | < 100 nM | < 100 nM | – | – | –
COc1ccc2c(c1)[C@]1(C[C@H]1c1ccc3c(-c4ccc(N5CCC(N(C)C)CC5)cc4)n[nH]c3c1)C(=O)N2 (relative stereo) [Example A119, (1R*,2S*)-2-(3-(4-(4-(dimethylamino)piperidin-1-yl)phenyl)-1H-indazol-6-yl)-5′-methoxy spiro[cyclopropane-1,3′-indolin]-2′-one 2,2,2-trifluoroacetate] | < 100 nM | < 100 nM | – | – | –
COc1cc2c(cc1OC)[C@]1(C[C@H]1c1ccc3c(/C=C/c4ccc(CN(C)C)cc4)n[nH]c3c1)C(=O)N2 (relative stereo) [Example A168, (1R*,2S*)-(E)-2-(3-(4-((dimethylamino)methyl)styryl)-1H-indazol-6-yl)-5′,6′-dimethoxyspiro[cyclopropane-1,3′-indolin]-2′-one 2,2,2-trifluoroacetate] | < 100 nM | < 100 nM | – | – | –
COc1ccc2c(c1)[C@]1(C[C@H]1c1ccc3c(/C=C/c4ccc(N5CCOCC5)nc4)n[nH]c3c1)C(=O)N2 (relative stereo) [Example A213, (1R*,2S*)-5′-methoxy-2-(3-((E)-2-(6-morpholinopyridin-3-yl)vinyl)-1H-indazol-6-yl)spiro[cyclopropane-1,3′-indolin]-2′-one 2,2,2-trifluoroacetate] | < 100 nM | < 100 nM | – | – | –
O=C1Nc2ccccc2[C@]12CC2c1ccc2cn[nH]c2c1 (mixture of isomers) [Example A2, (1R*,2S*)-2-(1H-indazol-6-yl)spiro[cyclopropane-1,3′-indolin]-2′-one] | – | – | > 10000 nM | > 10000 nM | –
COc1ccc2c(c1)[C@]1(C[C@@H]1c1ccc3c(-c4ccc(N5CCN(C)CC5)nc4)n[nH]c3c1)C(=O)N2 (relative stereo) [Example A17, (1R*,2R*)-5′-Methoxy-2-(3-(6-(4-methylpiperazin-1-yl)pyridin-3-yl)-1H-indazol-6-yl)spiro[cyclopropane-1,3′-indolin]-2′-one] | 100 to 1000 nM | – | – | – | < 100 nM
COc1ccc2c(c1)[C@]1(C[C@H]1c1ccc3c(C#Cc4ccc(CN5CCN(C)CC5)cc4)n[nH]c3c1)C(=O)N2 (relative stereo) [Example A145, (1R*,2S*)-5′-methoxy-2-(3-((4-((4-methylpiperazin-1-yl)methyl)phenyl)ethynyl)-1H-indazol-6-yl)spiro[cyclopropane-1,3′-indolin]-2′-one bis(2,2,2-trifluoroacetate)] | 100 to 1000 nM | < 100 nM | – | – | –
Cc1ccc2c(c1)[C@]1(C[C@H]1c1ccc3c(/C=C/c4ccc(CN(C)C)cc4)n[nH]c3c1)C(=O)N2 (relative stereo) [Example A169, (1R*,2S*)-(E)-2-(3-(4-((dimethylamino)methyl)styryl)-1H-indazol-6-yl)-5′-methylspiro[cyclopropane-1,3′-indolin]-2′-one 2,2,2-trifluoroacetate] | – | – | < 100 nM | – | –
COc1ccc2c(c1)[C@]1(C[C@H]1c1ccc3c(/C=C/c4ccc(N5CCNCC5)cc4)n[nH]c3c1)C(=O)N2 (relative stereo) [Example A182, (1R*,2S*)-5′-methoxy-2-(3-(4-(piperazin-1-yl)styryl)-1H-indazol-6-yl)spiro[cyclopropane-1,3′-indolin]-2′-one 2,2,2-trifluoroacetate] | < 100 nM | < 100 nM | – | – | –
